This is an account of results in publication PMC7913881, “The First Step of Biodegradation of 7-Hydroxycoumarin in Pseudomonas mandelii 7HK4 Depends on an Alcohol Dehydrogenase-Type Enzyme” (International Journal of Molecular Sciences, 2021).

For one series, the target named is T1, (UniProt A0A890JDX9).
T1 construct: gene hcdE; recombinant C-terminally His6-tagged protein
The series can be described thus: spectrophotometric NADPH oxidation kinetics with purified enzyme; substrate and substrate inhibitor. Type of series: biochemical, Pseudomonas mandelii. The text has this: spectrophotometric NADPH oxidation kinetics with purified enzyme; substrate and substrate inhibitor on HcdE | 7-hydroxycoumarin was likely a pseudo-competitive inhibitor characterized by the inhibition constant Ki

Series [1] deals with NC(=O)C1=CN([C@@H]2O[C@H](COP(=O)(O)OP(=O)(O)OC[C@H]3O[C@@H](n4cnc5c(N)ncnc54)[C@H](OP(=O)(O)O)[C@@H]3O)[C@@H](O)[C@H]2O)C=CC1. Nature of the series: purified protein. The note with it: varied: cofactor.

T1 sequence (A0A890JDX9 1-376 limits assumed): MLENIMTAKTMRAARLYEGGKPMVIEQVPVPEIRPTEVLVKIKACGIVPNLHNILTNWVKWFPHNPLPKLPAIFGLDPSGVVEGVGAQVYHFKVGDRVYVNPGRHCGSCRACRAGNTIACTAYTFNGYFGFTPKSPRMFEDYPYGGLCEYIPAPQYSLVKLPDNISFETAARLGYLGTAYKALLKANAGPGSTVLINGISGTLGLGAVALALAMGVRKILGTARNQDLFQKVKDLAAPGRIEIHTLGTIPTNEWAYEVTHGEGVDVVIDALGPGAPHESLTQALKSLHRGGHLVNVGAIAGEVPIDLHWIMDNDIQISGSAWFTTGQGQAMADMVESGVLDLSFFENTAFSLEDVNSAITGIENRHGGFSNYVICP

For the molecule `O=c1ccc2ccc(O)cc2o1` [compound 1, 7-hydroxycoumarin], on (UniProt A0A890JDX9), the Ki turned out to be 22 mM.
Consider HcdE (Pseudomonas mandelii), for which, in series [1], the Km was 20 µM.

As a reminder, the Km is the substrate concentration at which the rate is half of its maximum.
